This note sets out measurements from patent publication US20170119790A1, “Agents, Uses and Methods” (CYTOGUIDE A/S, priority 2009, published 2017).

Structures are written as SMILES. Entries after “also recorded” stand apart in the source; their conditions may differ. Where two headings read alike, the source gives them in different places.

Series [1] has as its system LPS mediated TNFα stimulation of rat macrophages / spleen cells. As to the kind of experiment: Rat in vitro LPS model. The format is cell-based. The note with it: 1 μg/ml, LPS 20 hours, FIG. 37. How it is done: Rat or mouse peritoneal or spleen cell suspensions were prepared from female Lewis rats (Harlan) or BalB/cA mice (Taconic). Human mononuclear cells were isolated from buffycoats (Skejby University Hospital) as described above. The purified cells were suspended in RPMI medium supplemented with 10% FCS and 2 mM L-glutamine and cultured (2×10^5 per well) overnight in 96-well flat bottomed plates (125 μl per well) at 37° C. and 5% CO2. Glucocorticoid conjugates (Example 8), free glucocorticoids or PBS were serial diluted in supplemented RPMI medium and added (100 μl) to the overnight cell cultures at final concentrations ranging from 1-10^−7 μg glucocorticoid/ml. After incubation for a specific time ranging from 30 min-24 hours, 150 μl supernatant was carefully aspirated and 150 μl supplemented RPMI medium added to the wells before further incubation overnight. Each incubation condition was tested in duplicates or triplicates. After 16-20 hours, the cells were challenged with lipopolysaccharide (LPS) (250 ng/ml) for 4 hours before supernatant was aspirated from each well and frozen at -20° C.

Series [2] relates to collagen-induced arthritis. The following applies: for body weight after initiation of treatment: FIG. 47; for day of disease onset: mean±SD; for thymus weight compared to vehicle: at sacrifice.
Experimental: The effect of dexamethasone on arthritis development in the rat CIA model was tested at three dosages (0.01, 0.1 and 1 mg/kg). Dexamethasone was administered intravenously on day 10 (day of disease onset), 13, 16 and 19. […] Treatment with vehicle (PBS/2.5% EtOH) served as negative control. Rats were sacrificed 21 days after immunization.
Collagen arthritis was induced in 9 weeks old female Lewis rats using a two-step immunization protocol. On day 0, all mice were immunized by intradermal injection of 1 mg/ml bovine type II collagen emulsified in Incomplete Freund's adjuvant at several sites at the back. Arthritis development was accelerated by an intradermal boost in the back and tail-base with 100 Sg bovine type II collagen in IFA on day 7. In order to perform immunization and intradermal boost, rats were anesthetized by inhalation of 3-4% isoflurane in a mixture of oxygen and N2O.
Rats were evaluated 6 times per week (once during weekends) for arthritis severity using a macroscopic scoring system of 0-4 for each paw as detailed below: • 0=no signs of arthritis • 0.5=unloading of the paw and/or light redness of ankle joint • 1=redness and mild swelling of the ankle joint • 2=redness and swelling of paw • 3=severe redness and swelling of entire paw including digits • 4=maximally swollen paw, often involvement of multiple joints and extending towards knee joint.
The total clinical score of an individual rat is defined as the sum of the clinical scores of all four paws for each day. At the end of the study, the cumulative arthritis score was calculated for each rat. This cumulative arthritis score is defined as the sum of the total clinical scores obtained from day 0 till day 21.
The day of disease is defined as the first day of three consecutive days on which a total arthritis score of more than 0 was observed.
The swelling of the hind paws was measured during weekdays with a laser scan micrometer (Mitutoyo, LSM-503S/6200). At the end of the study, the cumulative paw swelling was calculated for each rat as follows: a baseline value was determined by averaging the paw thickness values of day 0-9 when no signs of arthritis were visible. Next, increase in paw thickness was calculated by subtracting the baseline value from the paw thickness values obtained on day 10-21 (delta value). Cumulative paw swelling is defined as the sum of the delta paw thickness values from day 10 till 21.
Spleen, thymus and liver were isolated and weighed at sacrifice. Weights were normalized for body weight.
Collagen-induced arthritis (CIA) was induced in female Lewis rats (9 weeks of age) by intradermal injection of approximately 1 mg bovine type II collagen (Chondrex) emulsified in Incomplete Freund's adjuvant (IFA). The rats were immunized at several sites at the back under isoflurane anaesthesia (day 0) and boosted intradermal at the back and tail-base with 100 μg bovine type II collagen in IFA at day 7. The rats were scored 6 times per weeks for clinical signs of arthritis. Clinical severity of CIA was determined by swelling of individual joints and the number of affected joints in the front and rear paws. Each paw was scored from 1 to 4, so the maximum clinical score, including all four paws was 16.
A total of 20 rats were divided into five treatment groups (4 rats each). […] Changes in ankle size and body weight were monitored during the treatment process. On day 21, all animals were sacrificed and joint tissue, spleen, liver and thymus were dissected.
Series [3] relates to LPS mediated TNFα stimulation. Kind of series: Rat in vivo LPS model. Further details: species or system Lewis rats.
The subject of series [4] is LPS mediated TNFα stimulation. The note with it: serum 2 hours post LPS challenge, FIG. 42.

Regarding `C[C@@H]1C[C@H]2[C@@H]3CCC4=CC(=O)C=C[C@]4(C)[C@@]3(F)[C@@H](O)C[C@]2(C)[C@@]1(O)C(=O)CO` [dexamethasone], the “TNFα concentration higher in supernatants of macrophages stimulated without the agent (ED2 or PBS)” value in series [1] is recorded as “approximately 10 fold”. In series [2] (0.01 mg/kg), the “cumulative arthritis score reduced with respect to the vehicle group” value (“cumulative arthritis score reduced” for short) is recorded as 39%, the “day on which disease incidence of 100% was reached” value was determined as 14 days and the “body weight after initiation of treatment” value is recorded as “a certain degree of body weight loss”. In series [2] (0.1 mg/kg), the “cumulative arthritis score reduced” value amounted to 69% and the “thymus weight compared to vehicle” value is on record as “significantly decreased; also recorded: significantly lower”. For the same molecule, the “day of disease onset” value in series [2] (0.1 mg/kg i.v. day 10, 13, 16, 19) was 13.8 ± 1.0 days. In series [2] (1 mg/kg), the “cumulative arthritis score reduced” value worked out at 91% and the “thymus weight compared to vehicle” value is on record as “significantly decreased”. Further, the “day of disease onset” value in series [2] (1 mg/kg i.v. day 10, 13, 16, 19) worked out at 18.3 ± 2.1 days. Further, in series [2] (0.01, 0.1 and 1 mg/kg groups), the “spleen and liver weights compared to vehicle” value was “No significant differences”; the “body weight after initiation of treatment” value is recorded as “decreased gradually”. Further, the “spleen and thymus weight compared with rats injected with ED2-dexamethasone” value in series [3] (2 days post LPS injection, FIG. 39B and C) is given as “significantly lower”. Also, the “level of TNFα lower compared to vehicle” value in series [3] (i.v. 20 hours before LPS, serum 2 hours after LPS, FIG. 39A) was found to be 2 fold. The “TNFα level lower compared to vehicle” value in series [4] was 2 fold.
